In ChEMBL document CHEMBL1201862, “PubChem BioAssay data set” (2004) one finds EC50 and IC50 data, which are given here for three compounds.

One assay deals with Streptococcus. The assay can be described thus: GAS UMAA2166 growth inhibition – luminescence, BacTiterGlo, counter-screen for streptokinase expression inhibitor project, dose response (AID 1915).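 Note: potency for reduction of bacterial viability or growth.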 The assay is classed as functional, organism-based. On the technique in general: A counterscreen serves to expose hits that act by an unwanted route or on another target.
The target of assay [1] is T1, Sentrin-specific protease 7 (Homo sapiens, UniProt Q9BQF6).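 Note: Luminescence-based dose-response confirmation of ultra-high-throughput screening hits, measuring inhibition of SENP7.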
T1 sequence (Q9BQF6 whole entry): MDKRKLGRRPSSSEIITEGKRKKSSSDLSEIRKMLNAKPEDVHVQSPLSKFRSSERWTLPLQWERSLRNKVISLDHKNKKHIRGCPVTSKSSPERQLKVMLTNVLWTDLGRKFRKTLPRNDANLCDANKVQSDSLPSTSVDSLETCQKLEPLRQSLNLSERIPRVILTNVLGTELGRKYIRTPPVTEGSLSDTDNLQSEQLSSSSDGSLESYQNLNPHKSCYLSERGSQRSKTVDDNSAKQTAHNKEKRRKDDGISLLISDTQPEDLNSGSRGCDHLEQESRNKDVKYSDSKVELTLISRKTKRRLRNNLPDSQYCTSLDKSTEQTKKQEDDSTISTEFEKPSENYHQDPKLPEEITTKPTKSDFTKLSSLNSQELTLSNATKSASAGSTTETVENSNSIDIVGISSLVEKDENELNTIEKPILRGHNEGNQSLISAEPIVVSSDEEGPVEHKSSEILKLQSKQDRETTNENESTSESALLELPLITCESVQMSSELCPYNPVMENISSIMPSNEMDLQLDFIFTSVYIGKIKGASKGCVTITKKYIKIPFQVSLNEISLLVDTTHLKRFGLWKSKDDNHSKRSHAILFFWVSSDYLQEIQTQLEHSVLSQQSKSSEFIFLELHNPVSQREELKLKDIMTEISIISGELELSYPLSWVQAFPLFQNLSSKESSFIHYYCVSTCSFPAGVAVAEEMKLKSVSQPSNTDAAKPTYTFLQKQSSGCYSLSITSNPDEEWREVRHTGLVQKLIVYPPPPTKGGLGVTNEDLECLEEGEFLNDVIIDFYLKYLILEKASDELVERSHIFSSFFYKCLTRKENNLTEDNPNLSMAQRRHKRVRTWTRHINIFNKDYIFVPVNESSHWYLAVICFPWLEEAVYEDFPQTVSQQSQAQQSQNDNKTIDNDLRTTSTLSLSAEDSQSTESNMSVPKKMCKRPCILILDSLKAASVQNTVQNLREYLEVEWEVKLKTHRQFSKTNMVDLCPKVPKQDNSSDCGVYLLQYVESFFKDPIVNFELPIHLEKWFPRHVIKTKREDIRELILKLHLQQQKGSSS
It counts as functional.

The target in the next assay is T2, Caspase-3 (Homo sapiens, UniProt P42574).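 Note: Dose-response selectivity test against caspase-3 for candidate inhibitors of sentrin-specific proteases (SENPs).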
T2 sequence (P42574 whole entry): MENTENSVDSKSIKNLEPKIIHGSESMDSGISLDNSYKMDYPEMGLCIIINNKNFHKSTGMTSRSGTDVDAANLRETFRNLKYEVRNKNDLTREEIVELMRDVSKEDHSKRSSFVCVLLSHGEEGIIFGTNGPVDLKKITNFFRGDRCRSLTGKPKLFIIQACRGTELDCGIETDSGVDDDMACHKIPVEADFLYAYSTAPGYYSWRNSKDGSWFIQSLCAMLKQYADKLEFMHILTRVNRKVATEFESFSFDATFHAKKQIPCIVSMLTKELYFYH
It counts as functional.

The target of assay [2] is T3, Sentrin-specific protease 8 (Homo sapiens, UniProt Q96LD8).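 Note: luminescence read-out of SENP8 inhibition, dose-response confirmation following an ultra-high-throughput screen.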
T3 sequence (Q96LD8 whole entry): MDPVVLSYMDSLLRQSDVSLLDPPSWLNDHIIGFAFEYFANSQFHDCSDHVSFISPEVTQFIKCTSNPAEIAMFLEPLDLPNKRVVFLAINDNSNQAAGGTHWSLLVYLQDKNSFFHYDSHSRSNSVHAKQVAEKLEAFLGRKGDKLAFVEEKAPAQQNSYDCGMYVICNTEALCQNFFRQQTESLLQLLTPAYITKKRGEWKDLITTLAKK
The assay is classed as functional.

In assay [3] the target is T4, Sentrin-specific protease 6 (Homo sapiens, UniProt Q9GZR1).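 Note: Luminescence-based dose-response confirmatory assay of SENP6 inhibition, following up an ultra-high-throughput screen.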
T4 sequence (Q9GZR1 whole entry): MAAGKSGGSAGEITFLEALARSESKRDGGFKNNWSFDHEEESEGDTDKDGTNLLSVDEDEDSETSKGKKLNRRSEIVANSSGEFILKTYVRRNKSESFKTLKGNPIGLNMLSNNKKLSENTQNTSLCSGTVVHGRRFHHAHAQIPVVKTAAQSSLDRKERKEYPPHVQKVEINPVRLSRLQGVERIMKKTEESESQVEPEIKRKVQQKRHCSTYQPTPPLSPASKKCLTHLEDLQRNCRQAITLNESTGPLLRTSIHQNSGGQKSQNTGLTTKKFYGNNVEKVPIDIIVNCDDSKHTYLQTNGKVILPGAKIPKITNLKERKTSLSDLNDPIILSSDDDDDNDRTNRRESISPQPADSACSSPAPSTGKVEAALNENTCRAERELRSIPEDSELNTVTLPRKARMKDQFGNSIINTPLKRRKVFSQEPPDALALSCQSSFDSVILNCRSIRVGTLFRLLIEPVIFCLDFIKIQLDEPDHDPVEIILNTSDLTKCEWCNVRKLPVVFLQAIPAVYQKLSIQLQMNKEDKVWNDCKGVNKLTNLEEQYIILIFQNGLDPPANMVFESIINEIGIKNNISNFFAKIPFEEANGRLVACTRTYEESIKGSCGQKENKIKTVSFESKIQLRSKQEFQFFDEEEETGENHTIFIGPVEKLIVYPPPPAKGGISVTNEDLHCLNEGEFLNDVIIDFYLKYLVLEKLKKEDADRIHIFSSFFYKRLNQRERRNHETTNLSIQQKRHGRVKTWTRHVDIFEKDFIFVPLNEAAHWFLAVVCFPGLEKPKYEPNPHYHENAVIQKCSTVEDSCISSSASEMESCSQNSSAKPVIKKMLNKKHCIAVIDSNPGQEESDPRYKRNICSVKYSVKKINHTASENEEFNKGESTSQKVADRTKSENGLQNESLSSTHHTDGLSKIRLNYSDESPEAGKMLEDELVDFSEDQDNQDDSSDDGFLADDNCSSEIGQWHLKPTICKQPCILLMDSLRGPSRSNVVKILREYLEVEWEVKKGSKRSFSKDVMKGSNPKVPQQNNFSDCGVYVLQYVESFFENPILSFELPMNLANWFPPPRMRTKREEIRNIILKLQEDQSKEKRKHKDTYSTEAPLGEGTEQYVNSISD
The assay is classed as functional.

The source made the active and inactive calls. Cut-off read from the data, not from the text of the source, for most assays here: actives have a measured IC50 and inactives only a lower limit.

The EC50 is the concentration at which the effect is half-maximal. In general, IC50 refers to the concentration that gives 50% inhibition.

In the case of `CCC1CCCCN1S(=O)(=O)c1ccc(NC(=O)c2nc(S(C)(=O)=O)ncc2Cl)cc1` (stereo not given), in the assay on Streptococcus, the EC50 is 13.2 µM (active).
On to `CCCC[n+]1ccn(C2=C([N-]S(=O)(=O)c3ccc(Cl)cc3)C(=O)c3ccccc3C2=O)c1`, for which the IC50 is 22 µM (active) in assay [1], 55.7 µM (active) at Caspase-3, 38.2 µM (active) in assay [2] and 12.4 µM (active) in assay [3].
On to `CC(=O)c1cccc2c1N=C(c1[nH]c3ccccc3c1O)C2=O`, for which the EC50 in the assay on Streptococcus was > 150 µM (not active). For the same compound, the IC50 in assay [1] is 15.7 µM (active); at Caspase-3, 11.1 µM (active); in assay [2] it was 12.3 µM (active); in assay [3], 13.2 µM (active).
